Measured values as given in article PMC6332220, “Synthesis, Characterization and Biological Evaluation of Some Quinoxaline Derivatives: A Promising and Potent New Class of Antitumor and Antimicrobial Agents” (Molecules, 2015).
In brackets after ≈: the same amount, converted by molar mass.

Legend:
SF-268 (CNS cancer) = assay: In vitro cytotoxicity, SRB cell growth assay, SF-268; conditions: Homo sapiens, SF-268, 48 h, read-out: IC50 (μg/mL) SF-268
Procedure: The in vitro cytotoxic activity of the newly synthesized compounds against human breast cell line (MCF7), non-small cell lung cancer NCIH460, CNS cancer SF-268 and WI 38 (normal fibroblast cells) were evaluated using doxorubicin as the reference drug according to the method reported by Skehan et al..
The newly synthesized compounds were evaluated in vitro against three human cancer cell lines; which are MCF-7 (breast adenocarcinoma), NCI-H460 (non-small cell lung cancer) and SF-268 (CNS cancer), and WI 38 (normal fibroblast cells) were used in this study. MCF-7 was obtained from the European Collection of Cell Cultures (ECACC, Salisbury, UK) but NCI-H460, SF-268 and WI 38 were kindly provided by the National Cancer Institute (NCI, Cairo, Egypt). They grow as monolayer and routinely maintained RPMI-1640 medium supplemented with 5% heat inactivated fetal bovine serum (FBS), 2 mM glutamine and antibiotics (penicillin 100 U/mL, streptomycin 100 µg/mL), at 37 °C in a humidified atmosphere containing 5% CO2. Exponentially growing cells were obtained by plating 1.5 × 10^5 cells/mL for MCF-7 and SF-268, and 0.75 × 10^4 cells/mL for NCI-H460 followed by 24 h of incubation. The effect of the vehicle solvent (DMSO) on the growth of these cell lines was evaluated in all experiments by exposing untreated control cells to the maximum concentration (0.5%) of DMSO used in each assay.
The effect of compounds on the in vitro growth of human tumor cell lines were evaluated according to the procedure adopted by the National Cancer Institute ([…]) in the “In vitro Anticancer Drug Discovery Screen” that uses the protein-binding dye sulforhodamine B (SRB) to assess cell growth. In the assay protocol, all cells were incubated at 37 °C under humidified atmosphere containing 5% CO2. Briefly, exponentially cells growing in 96-well plates were then exposed for 48 h to five serial concentrations of each compound, starting from a maximum concentration of 150 μg/mL. Following this exposure period adherent cells were fixed, washed and stained. The bound stain was solubilized and the absorbance was measured at 492 nm in a plate reader (Bio-Tek Instruments Inc., Power wave XS, Winston, NC, USA). For each test compound and cell line, a dose response curve was obtained and the inhibitory concentration of 50% (IC50), corresponding to the concentration of the compounds that inhibited 50% of the net cell growth was calculated as described elsewhere. Doxorubicin was used as a positive control and tested in the same manner.

[1] = system: Gram positive and negative bacteria; assay: Disk diffusion, summary over bacterial strains; assay type: cell-based; conditions: range over bacterial strains as summarised in text
Procedure: (§1) The disk diffusion method was used for determination of the antimicrobial activity using ampicillin, gentamicin and amphotericin B as reference drugs. The results were recorded for each compounds as the average diameter as inhibition zones (IZ) of bacterial or fungal growth around the discs in mm as shown in Table 2.
Antimicrobial activities were carried out against highly pathogenic strains; three strains of Gram positive bacteria (Bacillus subtilis, Staphylococcus aureus and Streptococcus faecalis), four strains of Gram negative bacteria (Escherichia coli, Neisseria gonorrhoeae, Pseudomonas aeruginosa and Salmonella typhimurium) and three fungi strains (Aspergillus flavus, Aspergillus fumigatus and Candida albicans) isolated from primary agar plates. Antimicrobial activity of the tested samples was determined using a modified Kriby-Bauer disk diffusion method. Briefly, 100 µL of the test bacteria/fungi were grown in 10 mL of fresh media until they reached a count approximately 10^8 cells/mL for bacteria or 10^5 cells/mL for fungi. 100 µL of microbial suspension was spread onto agar plates corresponding to the broth in which they were maintained. […]

Bacillus subtilis = assay: MIC by broth dilution, Bacillus subtilis; assay type: cell-based; conditions: Bacillus subtilis, Gram positive, 0.98-125 µg/mL, read-out: Minimum Inhibitory Concentration (MIC) (µg/mL) Bacillus subtilis
Procedure: (§2) In this study, MIC (quantitative method) was used for evaluation of the antimicrobial activity of tested compounds. Screening was evaluated in vitro using the Broth dilution method according to CLSI [45]. All the bacteria were incubated and activated at 30 °C for 24 h inoculation into nutrient broth and the fungi were incubated in malt extract broth for 48 h. The compounds were dissolved in DMSO and then diluted using […] Mueller-Hinton broth. […] In each case triplicate tests were performed and the average was taken as the final reading. The tubes were then inoculated with the test organisms, grown in their suitable broth at 37 °C for 24 h for tested microorganisms (1 × 10^8 CFU/mL for bacteria and 1 × 10^6 CFU/mL of fungi), each 5 mL received 0.1 mL of the above inoculum and incubated at 37 °C for 24 h.

Staphylococcus aureus = assay: MIC by broth dilution, Staphylococcus aureus; assay type: cell-based; conditions: Staphylococcus aureus, Gram positive, 0.98-125 µg/mL, read-out: Minimum Inhibitory Concentration (MIC) (µg/mL) Staphylococcus aureus
Procedure: as §2

Aspergillus fumigatus = assay: MIC by broth dilution, Aspergillus fumigatus; assay type: cell-based; conditions: Fungi, 0.98-125 µg/mL, read-out: Minimum Inhibitory Concentration (MIC) (µg/mL) Aspergillus fumigatus
Procedure: as §1, §2

[2] = system: A. fumigatus and C. albicans; assay: Disk diffusion, summary over A. fumigatus and C. albicans; assay type: cell-based; conditions: range over both fungi
Procedure: as §1
Antimicrobial activities were carried out against highly pathogenic strains; three strains of Gram positive bacteria (Bacillus subtilis, Staphylococcus aureus and Streptococcus faecalis), four strains of Gram negative bacteria (Escherichia coli, Neisseria gonorrhoeae, Pseudomonas aeruginosa and Salmonella typhimurium) and three fungi strains (Aspergillus flavus, Aspergillus fumigatus and Candida albicans) isolated from primary agar plates. Antimicrobial activity of the tested samples was determined using a modified Kriby-Bauer disk diffusion method. Briefly, 100 µL of the test bacteria/fungi were grown in 10 mL of fresh media until they reached a count approximately 10^8 cells/mL for bacteria or 10^5 cells/mL for fungi. 100 µL of microbial suspension was spread onto agar plates corresponding to the broth in which they were maintained. The inoculated plates of bacterial strains were incubated at 35–37 °C for 24–48 h, while the inoculated plates of fungal strains such as A. flavus and A. fumigatus were incubated at 25 °C for 48 h and yeast as C. albicans was incubated at 30 °C for 24–48 h.
The agar disk diffusion (qualitative) method was used in this investigation for determination of the preliminary antibacterial and antifungal activities. The agar used was Mueller-Hinton agar plates that are rigorously tested for composition and pH. Further the depth of the agar in the plate is a factor to be considered in the disk diffusion method.
Reference drugs: ampicillin was used as a standard antibacterial drug for Gram positive bacteria, gentamicin as a standard antibacterial drug for Gram negative bacteria and amphotericin B as antifungal standard drug.
Bacterial and fungal strains were spread onto the surface of the agar plates using sterile cotton swabs. […]

Candida albicans = assay: MIC by broth dilution, Candida albicans; assay type: cell-based; conditions: Fungi, 0.98-125 µg/mL, read-out: Minimum Inhibitory Concentration (MIC) (µg/mL) Candida albicans
Procedure: as §1, §2

[3] = system: A. fumigatus and C. albicans; assay: MIC by broth dilution, summary over A. fumigatus and C. albicans; assay type: cell-based; conditions: range over both fungi
Procedure: as §1, §2

Row | Structure (SMILES) | MIC (Bacillus subtilis) | MIC (Staphylococcus aureus) | MIC (Aspergillus fumigatus) | MIC (Candida albicans) | MIC range against A. fumigatus and C. albicans [3] | IC50 (SF-268 (CNS cancer)) | IZ range against Gram positive and negative bacteria [1] | IZ range against A. fumigatus and C. albicans [2]
1 | NNc1nc2cc(Br)ccc2nc1Cl [Compound 3, 6-Bromo-2-chloro-3-hydrazinylquinoxaline] | 1.95 µg/mL (≈ 7.13 µM) | 3.9 µg/mL (≈ 14.3 µM) |  |  |  | 30.6 ± 2.39 µg/mL (≈ 112 µM) | 13–15 mm | 
2 | NNc1nc2ccc(Br)cc2nc1NN [Compound 9, 6-Bromo-2,3-dihydrazinylquinoxaline] | 0.98 µg/mL (≈ 3.64 µM) | 1.95 µg/mL (≈ 7.25 µM) | 0.98 µg/mL (≈ 3.64 µM) | 0.98 µg/mL (≈ 3.64 µM) | 0.98 to 62.5 µg/mL | 38.9 ± 2.63 µg/mL (≈ 145 µM) |  | 5–13 mm
3 | NC1=NN(c2nc3ccc(Br)cc3nc2N2N=C(N)CC2=O)C(=O)C1 [Compound 16, 6-Bromo-2,3-bis(3-amino-1H-pyrazol-5(4H)-one)quinoxaline] | 1.95 µg/mL (≈ 4.84 µM) | 1.95 µg/mL (≈ 4.84 µM) |  |  |  | 49.9 ± 8.64 µg/mL (≈ 124 µM) |  | 
4 | Clc1nc2ccc(Br)cc2n2nnnc12 [Compound 4, 8-Bromo-4-chlorotetrazolo[1,5-a]quinoxaline] | 0.98 µg/mL (≈ 3.44 µM) | 3.9 µg/mL (≈ 13.7 µM) |  | 3.9 µg/mL (≈ 13.7 µM) |  | 0.06 ± 0.003 µg/mL (≈ 0.211 µM) |  | 
5 | Brc1ccc2c(c1)n1nnnc1c1nnnn21 [Compound 11, 9-Bromoditetrazolo[1,5-a:5′,1′-c]quinoxaline] | 0.98 µg/mL (≈ 3.37 µM) | 7.81 µg/mL (≈ 26.8 µM) |  |  |  | 2.86 ± 4.92 µg/mL (≈ 9.83 µM) |  | 
6 | Cc1cc(C)n(-c2nc3cc(Br)ccc3nc2NN)n1 [Compound 14, 6-Bromo-3-(3,5-dimethyl-1H-pyrazol-1-yl)-2-hydrazinyl quinoxaline] | 1.95 µg/mL (≈ 5.85 µM) | 1.95 µg/mL (≈ 5.85 µM) |  |  |  | 42.1 ± 5.58 µg/mL (≈ 126 µM) |  | 

Second part, led by results:

Row | MIC (Bacillus subtilis) | MIC (Staphylococcus aureus) | MIC (Aspergillus fumigatus) | MIC (Candida albicans) | MIC range against A. fumigatus and C. albicans [3] | Structure (SMILES) | IC50 (SF-268 (CNS cancer)) | IZ range against Gram positive and negative bacteria [1] | IZ range against A. fumigatus and C. albicans [2]
7 | 1.95 µg/mL (≈ 5.82 µM) | 1.95 µg/mL (≈ 5.82 µM) | 1.95 µg/mL (≈ 5.82 µM) | 3.9 µg/mL (≈ 11.6 µM) | 0.98 to 62.5 µg/mL | Brc1ccc2nc(N3CCOCC3)c3nnnn3c2c1 [Compound 5b, 8-Bromo-4-(morpholin-4-yl)tetrazolo[1,5-a]quinoxaline] | 0.06 ± 0.008 µg/mL (≈ 0.179 µM) |  | 5–13 mm
8 | 31.2 µg/mL (≈ 93.8 µM) | 62.5 µg/mL (≈ 188 µM) | 31.2 µg/mL (≈ 93.8 µM) | 62.5 µg/mL (≈ 188 µM) | 0.98 to 62.5 µg/mL | Brc1ccc2nc(N3CCCCC3)c3nnnn3c2c1 [Compound 5a, 8-Bromo-4-(piperidin-1-yl)tetrazolo[1,5-a]quinoxaline] | 0.02 ± 0.008 µg/mL (≈ 0.06 µM) |  | 5–13 mm
